For assay [1], the target named is T1, ADAMTS-7 (Homo sapiens, UniProt Q9UKP4, A119V/A123T/A127T/A171V/A193G/A200T/A28V/A36P/A42G/A66V/A78S/A97T/D77A/DEL186-188/DEL228-233/E133D/E190K/E213K/E83Q/G114S/G115N/G117S/G196D/G27H/H100Y/H124S/H234Q/K153R/L143F/L192S/L20I/P189H/P201S/P29L/P33S/P79S/Q99P/R118N/R122Q/R174Q/R195Q/R215Q/R218H/R35L/R75A/R76Q/R87Q/R92L/S170E/S199R/S202G/S214H/T110I/T125V/V182M/V208G/V74A/W225K/Y209S).
T1 construct: rat ADAMTS-7 signal peptide + prodomain (rat 1-217), fusion partner (N); 2xStrep tag (C); 6xHis tag (C); made in house; host or cells: Expi293 cells
T1 sequence (Q9UKP4 with tags, fused parts or gaps with the stated changes): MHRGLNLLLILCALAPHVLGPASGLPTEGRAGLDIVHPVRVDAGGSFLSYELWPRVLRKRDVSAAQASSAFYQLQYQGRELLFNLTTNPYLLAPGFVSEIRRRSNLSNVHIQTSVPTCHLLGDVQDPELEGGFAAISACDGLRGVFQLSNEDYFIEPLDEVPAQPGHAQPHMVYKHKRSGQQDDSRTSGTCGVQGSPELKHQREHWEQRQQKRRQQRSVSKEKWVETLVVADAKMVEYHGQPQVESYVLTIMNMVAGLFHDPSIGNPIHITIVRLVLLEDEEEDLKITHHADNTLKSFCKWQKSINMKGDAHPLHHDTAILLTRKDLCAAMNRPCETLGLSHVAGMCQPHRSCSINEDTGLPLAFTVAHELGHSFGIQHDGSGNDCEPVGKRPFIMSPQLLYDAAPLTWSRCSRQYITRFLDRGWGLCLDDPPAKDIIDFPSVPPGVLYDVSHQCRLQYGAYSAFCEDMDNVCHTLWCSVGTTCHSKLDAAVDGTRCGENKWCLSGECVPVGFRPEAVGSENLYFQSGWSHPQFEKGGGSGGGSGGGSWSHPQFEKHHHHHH
Briefly: ADAMTS-7 enzymatic activity FRET assay, testing of inhibitory compounds. The format is biochemical. As to the method: Purified recombinant ADAMTS-7 (as of SEQ ID NO: 1 or SEQ ID NO: 2) was diluted in reaction buffer (20 mM HEPES pH 8.0, 150 mM NaCl, 5 mM CaCl2, 0.004% Brij, 10 μM ZnCl2) for a concentration of approximately 20 nM. 25 μl of the solution were transferred into each well of a 384-well white microtiter plate (Greiner Bio-One 781075) and 1 μl test compound solution (modulator/inhibitor dissolved in DMSO, at the corresponding concentration) or pure DMSO as a control were added per well. […] Amino acids […] are derived from Thrombospondin-1 sequence (275-289). An additional carboxyl glutamic acid was added after the QXL520 quencher to increase substrate solubility. The microtiter plate was incubated for 120 min at the temperature of 32° C. The increase of fluorescence intensity was measured in appropriate fluorescence plate reader (e.g. TECAN Ultra) using excitation wavelength of 485 nm and emission wavelength of 520 nm. IC50 values were calculated from percentage of inhibition of ADAMTS-7 activity as a function of test compound concentration. IC50 values derived using functional ADAMTS-7 according to SEQ ID NO: 1 or SEQ ID NO: 2, respectively, were not distinguishable, both laying within the experimental error.
(§1) The assays to determine the IC50 for ADAMTS inhibition were performed as described earlier herein.

Assay [2] addresses T2, ADAMTS-4 (Homo sapiens, UniProt O75173).
T2 construct: purchased R&D 4307-AD
T2 sequence (O75173 213-837): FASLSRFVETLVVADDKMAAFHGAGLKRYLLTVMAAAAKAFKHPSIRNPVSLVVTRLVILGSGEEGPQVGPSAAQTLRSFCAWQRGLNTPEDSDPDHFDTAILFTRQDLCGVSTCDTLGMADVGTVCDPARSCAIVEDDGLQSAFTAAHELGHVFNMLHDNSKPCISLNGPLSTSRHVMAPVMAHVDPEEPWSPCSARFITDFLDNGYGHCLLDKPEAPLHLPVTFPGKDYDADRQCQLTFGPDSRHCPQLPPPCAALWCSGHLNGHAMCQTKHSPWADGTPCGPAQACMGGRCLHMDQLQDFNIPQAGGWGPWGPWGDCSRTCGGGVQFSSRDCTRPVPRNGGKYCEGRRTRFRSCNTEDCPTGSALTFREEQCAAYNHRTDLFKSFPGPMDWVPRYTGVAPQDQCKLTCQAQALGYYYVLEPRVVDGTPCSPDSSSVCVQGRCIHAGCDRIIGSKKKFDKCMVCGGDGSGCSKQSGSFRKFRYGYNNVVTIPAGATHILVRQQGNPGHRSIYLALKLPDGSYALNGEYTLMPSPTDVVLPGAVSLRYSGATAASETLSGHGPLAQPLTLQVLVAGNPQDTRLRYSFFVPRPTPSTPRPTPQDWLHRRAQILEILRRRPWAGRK
In words: Selectivity FRET assay ADAMTS4. The assay is classed as biochemical. Conditions: ADAMTS4 50 nM, Dabcyl-[…]-Glu(Edans)-NH2 1 μM, 120 min, 32° C. As for the experimental part:
The respective enzyme (see Table 4 below) was diluted in reaction buffer (50 mM Tris, 2.5 μM ZnCl2, 0.05% BSA, 0.001% Brij, pH 7.5 for ADAM17; 50 mM Tris 7.5, 150 mM NaCl, 10 mM CaCl2, 0.05% Brij for all other enzymes) to the respective concentration and 25 μl were transferred into each well of a 384-well white microtiter plate (Greiner Bio One 781075). 1 μl test compound solution (dissolved in DMSO, at the corresponding concentration) or pure DMSO as a control was added per well. The enzymatic reaction was initiated by addition of 25 μl of the respective concentration of the respective FRET substrate (see Table 4 below) in reaction buffer. The microtiter plate was incubated for 120 min at the temperature of 32° C. The increase of fluorescence intensity was measured in appropriate fluorescence plate reader (e.g. TECAN Ultra) using the respective wavelengths for excitation and emission. IC50 values were calculated from percentage of inhibition of enzyme activity as a function of test compound concentration.
Table 4. Assay conditions for the evaluation of the selectivity of ADAMTS-7 modulators. Abbreviations: Dabcyl: 4-((4-(dimethylamino)phenyl)azo)benzoic acid; Glu(Edans): L-glutamic acid-γ-[2-(1-sulfonyl-5-naphthyl)-aminoethylamide]; Mca: (7-Methoxycoumarin-4-yl)acetyl; Dap(Dnp): (2S)-3-(2,4-dinitroanilino)-2-(9H-fluoren-9-ylmethoxycarbonylamino)propanoic acid; Dpa: N-3-(2, 4-Dinitrophenyl)-L-2,3-diaminopropionyl.
as §1

Molecule `CC(C)(C)C1(CNC(=O)c2cnc(-c3ccccc3)o2)NC(=O)NC1=O` (racemic) [Example 12.4, rac-{[4-tert-butyl-2,5-dioxoimidazolidin-4-yl]methyl}-2-phenyl-1,3-oxazole-5-carboxamide] returned a half-inhibitory concentration (IC50) in assay [1] of 480 nM.

Turning to `O=C1NC(=O)[C@](CNC(=O)c2cnn(-c3ccc(F)cn3)n2)(C2CC2)N1` [Example 12.1, N-{[(4R)-4-cyclopropyl-2,5-dioxoimidazolidin-4-yl]methyl}-2-(5-fluoropyridin-2-yl)-2H-1,2,3-triazole-4-carboxamide], the values for the IC50 in assay [1] and in assay [2] were 140 nM and 4750 nM, respectively.

With `O=C1NC(=O)[C@](CNC(=O)c2cnn(-c3cnccn3)n2)(C2CC2)N1` [Example 12.2, N-{[(4R)-4-cyclopropyl-2,5-dioxoimidazolidin-4-yl]methyl}-2-(pyrazin-2-yl)-2H-1,2,3-triazole-4-carboxamide], the IC50 in assay [1] was 355 nM; in assay [2], 24000 nM.

`O=C1NC(=O)[C@](CNC(=O)c2cc(-c3cnn(CC4CC4)c3)no2)(C2CC2)N1` [Example 12.3, N-{[(4R)-4-cyclopropyl-2,5-dioxoimidazolidin-4-yl]methyl}-3-[1-(cyclopropylmethyl)-1H-pyrazol-4-yl]-1,2-oxazole-5-carboxamide]: in assay [1], half-maximal inhibition (IC50) was put at 550 nM.

With `Cn1cc(-c2cc(C(=O)NC[C@@]3(C4CC4)NC(=O)NC3=O)on2)cn1` [Example 12.5, N-{[(4R)-4-cyclopropyl-2,5-dioxoimidazolidin-4-yl]methyl}-3-(1-methyl-1H-pyrazol-4-yl)-1,2-oxazole-5-carboxamide], the IC50 in assay [1] came out at 52 nM; in assay [2] it was 4690 nM.

As usually defined, the IC50 is the concentration at which inhibition is half-maximal. Read a high IC50 as lower potency.

Source of the values: US20220412975A1, “CHARACTERIZING MODULATORS OF ADAMTS-7 AND ADAMTS-12” (The Broad Institute, Inc., priority 2019, published 2022).
